Our source for the IC50 and inhibition values is article PMC12751012, “Nanoscale Direct-to-Biology Optimization and Structural Insights into Selective S. aureus TrmD Inhibitors” (Journal of Medicinal Chemistry, 2025).

Assay [1] concerns the target T1, S. aureus TrmD (Staphylococcus aureus, UniProt Q2FZ43).
T1 construct: made in house; host or cells: E. coli BL21
T1 sequence (Q2FZ43 1-245): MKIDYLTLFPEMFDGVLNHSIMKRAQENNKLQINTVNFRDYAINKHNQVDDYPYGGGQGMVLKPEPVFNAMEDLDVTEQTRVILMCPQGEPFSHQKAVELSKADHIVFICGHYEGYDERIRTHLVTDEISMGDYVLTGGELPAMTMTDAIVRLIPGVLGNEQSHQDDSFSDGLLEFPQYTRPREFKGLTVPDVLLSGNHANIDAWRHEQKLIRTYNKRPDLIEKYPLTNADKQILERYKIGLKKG
The experiment in a line: Aptamer-based MTase enzyme inhibition assay. The assay is classed as biochemical. The protocol: For the determination of S. aureus TrmD IC50-values, a split aptamer assay according to Nidoieva et al. was employed. The assay was performed in 40 mM Tris HCl, 100 mM NaCl, 10 mM MgCl2, 5% Glycerol, pH 7.5. Enzyme reaction mixtures contained synthetic tRNA^LeuCAG substrate (synthetic tRNA^Leu: 5′-[…]-3′, Genscript, final concentration: 2 μM), S. aureus TrmD (final concentration: 100 nM), SAM (New England Biolabs, final concentration: 2 μM), and the test compounds in varying concentrations (3% DMSO, final volume 10 μL). Pure DMSO was used as a mock treatment reaction control. The assay was carried out in triplicate in black 384-well plates (Greiner). Enzyme reactions were quenched by the addition of 1 μL SDS (3%) after an incubation time of 60 min at room temperature.

In assay [2] the target is T1, S. aureus TrmD. The experiment in a line: nanoSAR direct-to-biology FP displacement screening of crude triazoles. The assay is classed as binding. To be noted: read-out: % displaced tracer. Summed up:
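Crude CuAAC triazoles from alkyne 7 and 320 diverse azides were screened by FP displacement of 10 nM tracer 4 from 500 nM S. aureus TrmD. Buffer was 40 mM Tris HCl, 100 mM NaCl, 10 mM MgCl2, 5% glycerol, pH 7.5.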

[3] abbreviates: aptamer-based enzyme assay, read-out: IC50 S. aureus TrmD.
Setting [4] is: crude triazole at 1 μM, assuming full conversion, 500 nM TrmD, 10 nM tracer 4.

Like-named read-outs stand apart in the source and are kept apart here.

What is called IC50 is the concentration that inhibits the measured activity by half. In the case of `NC(N)=NCCn1cc(-c2c[nH]c3nc[nH]c(=O)c23)nn1` [Compound 8h], the IC50 in assay [1] turned out to be 1160 ± 120 nM. In addition, the inhibition at 1 µM in assay [2] amounted to 97%.
On to `N#Cc1cccc(Cn2cc(-c3c[nH]c4nc[nH]c(=O)c34)nn2)c1` [Compound 8b, 3-((4-(4-Oxo-4,7-dihydro-3H-pyrrolo[2,3-d]pyrimidin-5-yl)-1H-1,2,3-triazol-1-yl)methyl)benzonitrile], for which the IC50 in assay [1] (setting [3]) was found to be 3220 ± 1800 nM. For the same compound, the inhibition at 1 µM in assay [2] (setting [4]) came to 100%.
In the case of `O=c1[nH]cnc2[nH]cc(-c3cn(CC4CCC5C(CC4)C5(F)F)nn3)c12` (stereo not shown) [Compound 8c, 5-(1-((8,8-Difluorobicyclo[5.1.0]octan-4-yl)methyl)-1H-1,2,3-triazol-4-yl)-3,7-dihydro-4H-pyrrolo[2,3-d]pyrimidin-4-one], the IC50 in assay [1] (setting [3]) was determined as 710 ± 100 nM. Also, in assay [2] (setting [4]), the inhibition at 1 µM came out at 98%.
For `O=c1[nH]cnc2[nH]cc(-c3cn(Cc4ccc5ncccc5c4)nn3)c12` [Compound 8d, 5-(1-(Quinolin-6-ylmethyl)-1H-1,2,3-triazol-4-yl)-3,7-dihydro-4H-pyrrolo[2,3-d]pyrimidin-4-one], in that order: 390 ± 70 nM and 98%.
For `N[C@@H]1CCC[C@@H]1Cn1cc(-c2c[nH]c3nc[nH]c(=O)c23)nn1` [Compound 8e, 5-(1-(((1R,2R)-2-Aminocyclopentyl)methyl)-1H-1,2,3-triazol-4-yl)-3,7-dihydro-4H-pyrrolo[2,3-d]pyrimidin-4-one], in that order: 480 ± 60 nM and 93%.
